# Patent US7582676B2, “2-phenylpyran-4-one derivatives as selective COX-2 inhibitors” (Laboratorios Almirall, S.A., priority 2003, dated 2009)
# Tests used:
# [1] = target: T1, COX-2 (Homo sapiens, UniProt P35354); experiment: COX-2 activity in human whole blood (PGE2, LPS induced); format: cell-based; details: for IC50: LPS 10 μg/ml, 24 h at 37° C., PGE2 by EIA; for Ratio COX-1/COX-2: ratio of COX-1/COX-2 IC50 values
# T1 construct: in the presence of LPS (10 μg/ml) for 24 h at 37° C. in order to induce the COX-2 expression; endogenous in cells; host or cells: human whole blood of healthy volunteers, LPS-stimulated for 24 h; PGE2 read-out
# T1 sequence (P35354 18-604): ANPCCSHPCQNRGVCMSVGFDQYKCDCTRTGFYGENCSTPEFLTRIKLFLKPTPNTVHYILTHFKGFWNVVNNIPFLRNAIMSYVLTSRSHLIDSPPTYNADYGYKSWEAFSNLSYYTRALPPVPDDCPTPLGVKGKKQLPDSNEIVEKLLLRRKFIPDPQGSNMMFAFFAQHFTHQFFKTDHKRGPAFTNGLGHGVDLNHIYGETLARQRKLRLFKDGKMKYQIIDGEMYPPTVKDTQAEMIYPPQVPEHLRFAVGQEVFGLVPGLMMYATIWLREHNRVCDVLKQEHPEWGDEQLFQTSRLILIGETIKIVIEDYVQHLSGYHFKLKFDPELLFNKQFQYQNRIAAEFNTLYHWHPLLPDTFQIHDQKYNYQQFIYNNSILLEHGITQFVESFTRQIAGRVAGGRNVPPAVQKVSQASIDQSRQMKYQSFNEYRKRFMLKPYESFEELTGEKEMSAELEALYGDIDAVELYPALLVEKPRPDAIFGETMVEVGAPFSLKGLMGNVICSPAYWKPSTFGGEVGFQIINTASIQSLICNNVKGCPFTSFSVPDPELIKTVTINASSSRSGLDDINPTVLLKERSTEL
# Protocol: (§1) COX-1 and COX-2 Activities in Human Whole Blood
# For the COX-2 activity determination, 500 μl aliquots of blood were incubated in the presence of LPS (10 μg/ml) for 24 h at 37° C. in order to induce the COX-2 expression (Patriagnani et al., J. Pharm. Exper. Ther. 271; 1705-1712 (1994)). Plasma was separated by centrifugation (10 min at 13000 rpm) and kept at −30° C. until PGE2 levels were measured using an enzyme immunoassay kit (EIA). […] IC50 values were obtained by non-linear regression using InPlot, GraphPad software on an IBM computer.
# [2] = target: T2, COX-1 (Homo sapiens, UniProt P23219); experiment: COX-1 activity in human whole blood (TXB2, calcium ionophore A23187); format: cell-based; details: 24 h at 37° C., A23187 25 μM, TXB2 by EIA
# T2 construct: Fresh blood from healthy volunteers; endogenous in cells; host or cells: human whole blood of healthy volunteers, stimulated with calcium ionophore A23187; TXB2 read-out
# Protocol: as §1
# Fresh blood from healthy volunteers who had not taken any non-steroidal anti-inflammatory drugs for at least 7 days prior to blood extraction was collected in heparinized tubes (20 units of heparin per ml). For the COX-1 activity determination, 500 μl aliquots of blood were incubated with either 5 μl vehicle (dimethylsulphoxide) or 5 μl of a test compound for 24 h at 37° C. Calcium ionophore A23187 (25 μM) was added 20 min before stopping the incubation. Plasma was separated by centrifugation (10 min at 13000 rpm) and kept at −30° C. until TXB2 levels were measured using an enzyme immunoassay kit (EIA).
# The effect of the compounds was evaluated by incubating each compound at five to six different concentrations with triplicate determinations. IC50 values were obtained by non-linear regression using InPlot, GraphPad software on an IBM computer.
# T2 sequence (P23219 24-599): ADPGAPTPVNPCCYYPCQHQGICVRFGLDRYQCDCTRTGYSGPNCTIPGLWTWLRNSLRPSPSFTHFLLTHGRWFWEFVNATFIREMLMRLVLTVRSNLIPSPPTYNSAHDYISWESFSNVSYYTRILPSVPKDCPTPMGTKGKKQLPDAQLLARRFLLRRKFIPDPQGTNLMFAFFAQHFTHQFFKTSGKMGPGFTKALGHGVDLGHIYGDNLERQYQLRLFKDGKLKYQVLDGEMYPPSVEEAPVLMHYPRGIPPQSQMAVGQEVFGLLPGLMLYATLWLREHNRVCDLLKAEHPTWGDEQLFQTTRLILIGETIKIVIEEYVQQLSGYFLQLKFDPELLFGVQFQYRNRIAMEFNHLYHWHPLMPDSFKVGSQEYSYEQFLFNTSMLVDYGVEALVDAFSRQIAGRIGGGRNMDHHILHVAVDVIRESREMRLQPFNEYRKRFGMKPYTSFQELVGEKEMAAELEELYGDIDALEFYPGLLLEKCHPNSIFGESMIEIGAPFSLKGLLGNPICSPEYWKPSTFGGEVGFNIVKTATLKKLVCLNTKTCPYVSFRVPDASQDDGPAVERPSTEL
Compound,IC50 [1],Ratio COX-1/COX-2 [1],IC50 [2]
"Cc1cc(=O)c(Oc2ccc(Br)cc2F)c(-c2ccc([S+](C)[O-])cc2)o1 (racemic) [Example 7, 3-(4-Bromo-2-fluorophenoxy)-6-methyl-2-[4-(methylsulfinyl)phenyl]-4H-pyran-4-one]",570 nM,135,77000 nM
"Cc1cc(=O)c(Oc2ccc(Cl)cc2F)c(-c2ccc([S+](C)[O-])cc2)o1 (single isomer, unassigned; enantiomer 4a) [Example 5, 3-4-Chloro-2-fluorophonoxy)-6-methyl-2-[4-(methylsuffinyl)phenyl]-4H-pyran-4-one-Enantiomer 4a]",–,–,72900 nM
"Cc1cc(=O)c(Oc2ccc(Br)cc2F)c(-c2ccc([S+](C)[O-])cc2)o1 (single isomer, unassigned; enantiomer 7a) [Example 8, 3-4-Bromo-2-fluorophenoxy)-6-methyl-2-[4-methylsulfinyl)phenyl]-4H-pyran4-one-Enantiomer 7a]",1580 nM,20,32100 nM

# More lines, now with the values ahead:
IC50 [1],Ratio COX-1/COX-2 [1],IC50 [2],Compound
960 nM,104,–,"Cc1cc(=O)c(Oc2ccc(F)cc2F)c(-c2ccc([S+](C)[O-])cc2)o1 (racemic) [Example 1, 3-(2,4-Difluorophenoxy)-6-methyl-2-[4-(methylsulfinyl)phenyl]-4H-pyran4-one]"
2100 nM,48,–,"Cc1cc(=O)c(Oc2ccc(F)cc2F)c(-c2ccc([S+](C)[O-])cc2)o1 (single isomer, unassigned; enantiomer 1a) [Example 2, 3-(2,4-Difluorophenoxy)-6-methyl-2-[4-(methylsulfinyl)phenyl]-4H-pyran-4-one-Enantiomer 1a]"
270 nM,321,86600 nM,"Cc1cc(=O)c(Oc2ccc(F)cc2F)c(-c2ccc([S+](C)[O-])cc2)o1 (single isomer, unassigned; enantiomer 1b) [Example 3, 3-(2,4-Difluorophenoxy)-6-methyl-2-[4-(methylsulfinyl)phenyl]-4H-pyran4-one-Enantiomer 1b]"
170 nM,430,73100 nM,"Cc1cc(=O)c(Oc2ccc(Br)cc2F)c(-c2ccc([S+](C)[O-])cc2)o1 (single isomer, unassigned; enantiomer 7b) [Example 9, 3-4-Bromo-2-fluorophenoxy)-6-methyl-2-[4-(methylsulfinyl)phenyg]4H-pyran-4-one-Enantiomer 7b]"
